Here are results for 7 molecules from patent publication US12466840B2, “Small molecule inhibitors of KRAS proteins” (Merck Sharp & Dohme LLC, priority 2023, dated 2025).

Like-named read-outs stand apart in the source and are kept apart here.

A word on the IC50: it is the concentration at which inhibition is half-maximal.

One experiment concerns the target KRAS G12V (Homo sapiens (Human), UniProt P01116, G12V). Briefly: SOS-catalyzed nucleotide exchange assay (GNE), KRAS G12V. Particulars: TR-FRET, 60 min preincubation. The experiment is classed as biochemical. An excerpt: (§1) Procedure for SOS-Catalyzed Nucleotide Exchange Assay for KRAS-WT, G12C/D/V/A/R/S, G13D, Q61H, HRAS-WT, and NRAS-WT
(§2) Recombinant KRAS-G12C protein used in this assay has an additional triple mutation (C51S/C80L/C118S). Whereas KRAS-WT, G12D/V/A/S/R, G13D, Q61H, HRAS and NRAS are in context of their WT protein sequence background. Specifically, the SOS-catalyzed nucleotide exchange assay utilizes a preformed TR-FRET complex containing a specific biotinylated RAS protein (KRAS-WT, G12C/V/D/A/S/R, G13D, Q61H, HRAS-WT, NRAS-WT; described above) with Bodipy-GDP, and Terbium-streptavidin. Compounds are preincubated with this complex for 60 minutes. Subsequently, recombinant human SOS protein and unlabeled GTP are added to initiate the exchange reaction. Small molecule inhibitors stabilize the Bodipy-GDP complex whereas the untreated protein rapidly exchanges Bodipy-GDP for unlabeled GTP resulting in reduced TR-FRET signal.
(§3) To assemble the preformed TR-FRET complexes, each biotinylated RAS protein is diluted to 2 μM in an EDTA Buffer (20 mM HEPES pH 7.5, 50 mM sodium chloride, 10 mM EDTA, and 0.01% Tween) and incubated at room temperature for one hour. This mixture is then further diluted to 90 nM in an Assay Buffer (20 mM HEPES pH 7.5, 150 mM sodium chloride, 10 mM magnesium chloride, and 0.005% Tween) containing 15 nM of Terbium-Streptavidin (Invitrogen, catalog #PV3577) and 900 nM of Bodipy-GDP (Invitrogen, catalog #G22360) and incubated at room temperature for six hours. It should be noted that this preformed TR-FRET complex for each of the RAS protein were made ahead of time, aliquoted and stored at −80° C. until the day of the experiment.
(§4) Each test compound (10 mM stock in DMSO) is diluted in DMSO to make a final-10-point, 3-fold dilution and is acoustically dispensed into a 384-well assay plate (Corning, catalog #3820) using an Echo 550 (Labcyte). Each well of the assay plate receives 3 μL of a specific 3×RAS preformed TR-FRET complex and 3 μL of Assay Buffer and is incubated at room temperature for 60 minutes (preincubation time). Each well then receives 3 μL of 3× recombinant human SOS protein and GTP (Sigma, G8877) in Assay Buffer and is incubated at room temperature for 30 minutes (G13D), 60 minutes (KRAS WT/G12C/D, H/NRAS) or 90 minutes for G12A/R/S/V and Q61H. The final reaction in each well of 9 μL consists of 3 mM GTP, specific Ras and SOS proteins in the following concentrations: KRAS-G12C/SOS=3 nM/40 nM, KRAS-WT and G12D/SOS=1 nM/40 nM, KRAS-G12V/SOS=1.25 nM/160 nM, KRAS-G12A/S/SOS=1 nM/160 nM, KRAS-G12R/SOS=1 nM/320 nM, KRAS-Q61H/SOS=1 nM/320 nM, KRAS-G13D/SOS=1.25 nM/[…], HRAS-WT and NRAS-WT=1.25 nM/40 nM.
(§5) The time-resolved fluorescence resonance energy transfer (TR-FRET) signal is measured on an Envision (PerkinElmer) plate reader: Excitation filter=340 nm; emission1=495 nm; emission2=520 nm; dichroic mirror=D400/D505; delay time=[…]. The signal of each well is determined as the ratio of the emission at 520 nm to that at 495 nm. Percent effect of each well is determined after normalization to control wells containing DMSO (no effect) or a saturating concentration of inhibitor (max effect). The apparent effect as a function of compound concentration is fit to a four-parameter logistic equation.
A general note: TR-FRET usually uses a lanthanide donor and a delayed reading to cut background.

A further experiment deals with KRAS G13D (Homo sapiens (Human), UniProt P01116, G13D). In words: SOS-catalyzed nucleotide exchange assay (GNE), KRAS G13D. Particulars: TR-FRET, 60 min preincubation. The experiment is classed as biochemical.
Excerpt: as §1, §2, §3, §4, §5

Another experiment deals with HRAS (Homo sapiens (Human), UniProt P01112). Briefly: SOS-catalyzed nucleotide exchange assay (GNE), HRAS-WT. It counts as biochemical. The following applies: TR-FRET, 60 min preincubation.
Excerpt: as §1, §2, §3, §4, §5

The subject of experiment [1] is AsPC-1 cells (homozygous KRAS-G12D). In words: Cellular phospho-ERK assay, AsPC-1 cells. The experiment is classed as cell-based. Particulars: p-ERK vs. total ERK, read-out: AsPC1 pERK IC50. The method, then:
Procedure for Cellular Phospho-ERK Assay in KRAS Wild Type and Mutant (G12D, G12V) Cell Lines
MKN-1 cells (JCRB JCRB0252) containing amplified wild-type KRAS, were cultured in growth medium that contains RPMI 1640-GlutaMAX™-I (ThermoFisher Scientific 61870) containing 10% heat inactivated fetal bovine serum (ThermoFisher Scientific 10091148), 1 mM sodium pyruvate and 10 mM HEPES. AsPC-1 cells (ATCC® CRL-1682™), containing homozygous KRAS-G12D activating mutation, were cultured in T150 flask in growth medium (RPMI medium 1640-GlutaMAX™-I (ThermoFisher Scientific 61870) containing 10% fetal bovine serum (ThermoFisher Scientific 10091148)). SW620 cells (ATCC® CRL-227™) containing homozygous KRAS-G12V activating mutation, were cultured in growth medium that contains RPMI 1640-GlutaMAX™-I (ThermoFisher Scientific 61870) containing 10% heat inactivated fetal bovine serum (ThermoFisher Scientific 10091148).
Cells for the assay were harvested in growth medium after TrypLE (ThermoFisher scientific 12604021) digestion and were seeded in a 384-well collagen coated cell culture plate (Corning 356702) at a density of 10,000-15,000 cells/[…]/well, and incubated at 37° C., 5% CO2 overnight. The compound (with 10 mM stock concentration) dose-response titrations were prepared [30 μM final ERK detection assay concentration and 1:3 dilutions, 10-point dose response] and appropriate amounts (270 nL) of test compounds were dispensed in a 384-well intermediate plate using an Echo 550 liquid handler. 30 μL/well of RPMI medium 1640-GlutaMAX™-I was added to the intermediate plate and the contents of the intermediate plate (10 μL/well) were then transferred to the 384-well collagen coated cell culture plate, which was incubated at 37° C., 5% CO2 for 2 h. After removal of medium from the collagen coated cell culture plate, cells were lysed in lysis buffer from Alpha SureFire® Ultra™ Multiplex p-ERK and total ERK assay kit (PerkinElmer MPSU-PTERK) containing Halt™ Protease and Phosphatase inhibitor cocktail (ThermoFisher Scientific 78446) at room temperature with constant shaking at 300 rpm for 30 minutes. The cell lysates were then transferred to an OptiPlate-384 plate (PerkinElmer 6005620), and the phosphorylation of ERK (p-ERK) and total ERK levels were detected by Alpha SureFire® Ultra™ Multiplex p-EEK kit and total ERK assay kit (PerkinElmer MPSU-PTERK) following the manufacturer's protocol. Assay plates were read on a EnVision Multimode Plate Reader (PerkinElmer), and the ratio of p-ERK vs. total ERK in each well was used as the final readout. Dose response curves were analyzed using a 4-parameter logistic model to calculate IC50 values using Spotfire software.

Sequence of KRAS G13D (P01116 other isoform, or with tags, fused parts or gaps G13D (already in the parent)): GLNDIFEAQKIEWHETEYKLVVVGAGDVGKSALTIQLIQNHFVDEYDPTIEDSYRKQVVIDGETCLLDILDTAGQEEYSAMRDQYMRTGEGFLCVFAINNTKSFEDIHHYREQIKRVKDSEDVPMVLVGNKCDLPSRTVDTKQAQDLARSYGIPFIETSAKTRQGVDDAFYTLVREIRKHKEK
Sequence of HRAS (P01112 other isoform, or with tags, fused parts or gaps): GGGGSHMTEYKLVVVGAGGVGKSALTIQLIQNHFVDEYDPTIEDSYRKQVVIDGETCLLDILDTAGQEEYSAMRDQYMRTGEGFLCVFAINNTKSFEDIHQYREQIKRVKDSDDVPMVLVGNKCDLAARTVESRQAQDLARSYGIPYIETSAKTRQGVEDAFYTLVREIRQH
Sequence of KRAS G12V (P01116 other isoform, or with tags, fused parts or gaps G12V (already in the parent)): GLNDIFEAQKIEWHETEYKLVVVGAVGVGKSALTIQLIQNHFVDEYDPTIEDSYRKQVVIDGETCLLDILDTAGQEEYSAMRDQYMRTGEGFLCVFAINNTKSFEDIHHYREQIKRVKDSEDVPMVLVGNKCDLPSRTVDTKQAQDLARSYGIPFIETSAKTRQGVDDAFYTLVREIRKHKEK

Consider `F/C=C1/CN2CCC[C@@]2(COc2nc3c4c(nc(-c5c(C6CC6)c(Cl)cc6[nH]ncc56)c(F)c4n2)OC[C@@H]2COCCCN32)C1` [Ex-1, (8aS)-5-(6-chloro-5-cyclopropyl-1H-indazol-4-yl)-4-fluoro-2-(((S,Z)-2-(fluoromethylene)tetrahydro-1H-pyrrolizin-7a(5H)-yl)methoxy)-8a,9,12,13-tetrahydro-8H,11H-7,10-dioxa-1,3,6,13a-tetraazanaphtho[1,8-ab]heptalene], for which the IC50 against KRAS G12V is 1.3 nM; against KRAS G13D, 3.7 nM; at HRAS, over 11100 nM; in experiment [1] (2 h), 5.1 nM.

Consider `CCc1c(F)ccc2cc3[nH]ncc3c(-c3nc4c5c(nc(OC[C@@]67CCCN6C[C@H](F)C7)nc5c3F)N3CCCOC[C@H]3CO4)c12` [Ex-2, (8aS)-5-(5-ethyl-6-fluoro-1H-benzo[f]indazol-4-yl)-4-fluoro-2-(((2R,7aS)-2-fluorotetrahydro-1H-pyrrolizin-7a(5H)-yl)methoxy)-8a,9,12,13-tetrahydro-8H,11H-7,10-dioxa-1,3,6,13a-tetraazanaphtho[1,8-ab]heptalene], for which the 50% inhibitory concentration (IC50) worked out at 1.3 nM against KRAS G12V, 1 nM at KRAS G13D, 2740 nM on HRAS and 7.4 nM in experiment [1] (2 h).

On to `Fc1c(-c2c(C3CC3)c(Cl)cc3[nH]ncc23)nc2c3c(nc(OC[C@@]45CCCN4C[C@H](F)C5)nc13)N1CCCOC[C@H]1CO2` [Ex-3, (8aS)-5-(6-chloro-5-cyclopropyl-1H-indazol-4-yl)-4-fluoro-2-(((2R,7aS)-2-fluorotetrahydro-1H-pyrrolizin-7a(5H)-yl)methoxy)-8a,9,12,13-tetrahydro-8H,11H-7,10-dioxa-1,3,6,13a-tetraazanaphtho[1,8-ab]heptalene], for which the half-maximal inhibitory concentration (IC50) was determined as 3 nM on KRAS G12V and 15 nM in experiment [1] (Homo sapiens, ASPC1, 2 h).

Take `CCc1c(F)ccc2cc3[nH]ncc3c(-c3nc4c5c(nc(OC[C@@]67CCCN6C/C(=C\F)C7)nc5c3F)N3CCCOC[C@H]3CO4)c12` [Ex-4, (8aS)-5-(5-ethyl-6-fluoro-1H-benzo[f]indazol-4-yl)-4-fluoro-2-(((S,Z)-2-(fluoromethylene)tetrahydro-1H-pyrrolizin-7a(5H)-yl)methoxy)-8a,9,12,13-tetrahydro-8H,11H-7,10-dioxa-1,3,6,13a-tetraazanaphtho[1,8-ab]heptalene]: the 50% inhibitory concentration (IC50) was 0.83 nM against KRAS G12V; 0.89 nM on KRAS G13D; 1270 nM against HRAS; 2.2 nM in experiment [1] (Homo sapiens, ASPC1, 2 h).

As for `F/C=C1\CN2CCC[C@@]2(COc2nc3c4c(nc(-c5c(C6(F)CC6)c(Cl)cc6[nH]ncc56)c(F)c4n2)OC[C@@H]2COCCCN32)C1` [Ex-5, (8aS)-5-(6-chloro-5-(1-fluorocyclopropyl)-1H-indazol-4-yl)-4-fluoro-2-(((S,Z)-2-(fluoromethylene)tetrahydro-1H-pyrrolizin-7a(5H)-yl)methoxy)-8a,9,12,13-tetrahydro-8H,11H-7,10-dioxa-1,3,6,13a-tetraazanaphtho[1,8-ab]heptalene], the IC50 came out at 0.98 nM at KRAS G12V; 1.2 nM on KRAS G13D; 4680 nM against HRAS; 3.2 nM in experiment [1] (Homo sapiens, ASPC1, 2 h).

Consider `CCc1c(F)ccc2cc3[nH]nc(C)c3c(-c3nc4c5c(nc(OC[C@@]67CCCN6C[C@H](F)C7)nc5c3F)N3CCCOC[C@H]3CO4)c12` [Ex-6, (8aS)-5-(5-ethyl-6-fluoro-3-methyl-1H-benzo[f]indazol-4-yl)-4-fluoro-2-(((2R,7aS)-2-fluorotetrahydro-1H-pyrrolizin-7a(5H)-yl)methoxy)-8a,9,12,13-tetrahydro-8H,11H-7,10-dioxa-1,3,6,13a-tetraazanaphtho[1,8-ab]heptalene], for which the IC50 on KRAS G12V was 1.5 nM; against KRAS G13D, 1.9 nM; against HRAS, 5520 nM; in experiment [1] (Homo sapiens, ASPC1, 2 h), 9.5 nM.

Regarding `CCc1c(F)ccc2cc3[nH]nc(C)c3c(-c3nc4c5c(nc(OC[C@@]67CCCN6C/C(=C\F)C7)nc5c3F)N3CCCOC[C@H]3CO4)c12` [Ex-7, (8aS)-5-(5-ethyl-6-fluoro-3-methyl-1H-benzo[f]indazol-4-yl)-4-fluoro-2-(((S,Z)-2-(fluoromethylene)tetrahydro-1H-pyrrolizin-7a(5H)-yl)methoxy)-8a,9,12,13-tetrahydro-8H,11H-7,10-dioxa-1,3,6,13a-tetraazanaphtho[1,8-ab]heptalene], the IC50 against KRAS G12V is 2.8 nM; on KRAS G13D, 2.4 nM; against HRAS it was 2180 nM; in experiment [1] (2 h), 7.1 nM.
